# According to patent US20250213563A1, “SUBSTITUTED PYRIMIDIN-4(3H)-ONES FOR USE IN TREATING CANCER” (NAVIRE PHARMA, INC., priority 2021, published 2025):
# Like-named read-outs stand apart in the source and are kept apart here.
# Tests used:
# [1] = biological target: T1, Large tumor suppressor kinase 1 (LATS1) (Homo sapiens, UniProt O95835); test: KINOMEscan competition binding; settings: read-out: ligand binding, % control
# T1 construct: purchased DiscoverX (KINOMEscan platform)
# Experimental: (§1) Activity of Compound (10b) (1 μM) was assessed against a panel of 419 human kinases (including a set of disease-relevant mutant variants). Assays were conducted using the KINOMEscan™ platform from DiscoverX which measures compound interaction with kinases using active site-directed competition binding assays. Displacement of ligand binding to the kinase by <35% of the control value is considered significant. Of the 419 kinases tested, only 4 kinases reached this level of displacement: Protein kinase C eta (PRKCH), 34% control; Large tumor suppressor kinase 1 (LATS1), 32% control; General control nonderepressible 2 kinase (GCN2), 21% control; and Hematopoietic Progenitor Kinase 1 (HPK1), 4.4% control.
# [2] = biological target: T2, Protein kinase C eta (PRKCH) (Homo sapiens, UniProt P24723); test: KINOMEscan competition binding; settings: read-out: ligand binding, % control
# T2 construct: purchased DiscoverX (KINOMEscan platform)
# Experimental: as §1
# [3] = tested on: panel of 14 full-length human phosphatases; test: Eurofins Panlabs spectrofluorimetric phosphatase panel; assay type: biochemical; settings: 10 μM
# Experimental: (§2) The activity of Compound (10b) was also assessed against a panel of 14 full-length human phosphatases using spectrofluorimetric biochemical assays. These assays were conducted using the Eurofins Panlabs platform.
# human SHP-1 = biological target: T3, human SHP-1 (Homo sapiens, UniProt P29350); test: Eurofins Panlabs spectrofluorimetric phosphatase assay; assay type: biochemical; settings: 10 μM
# T3 construct: a panel of 14 full-length human phosphatases; purchased Eurofins Panlabs
# Experimental: as §2
# [4] = Single-dose pharmacokinetics, Beagle dog; assay type: in vivo, male); settings: free base; for AUC(0-t): read-out: AUC0→24
# Experimental: (§3) The pharmacokinetic (PK) parameters of Compound (10b) (freebase) were determined following single intravenous (IV) and oral (PO) administration in female CD-1 mouse, female C57BL/6 mouse (PO only), male Sprague Dawley rat, male Beagle dog, and male Cynomolgus monkey. Additional evaluation of the PK properties of Compound (10b) was obtained following single dose PO administration in female CD-1 mouse, male Sprague Dawley rat and male Beagle dog over a dose range spanning 10 to 300 mg/kg (mouse and rat) and 1 to 100 mg/kg (dog). The intravenous dose solutions were prepared in 20% DMSO-60% PEG400-20% water and the oral dose solutions as suspensions in 0.5% methylcellulose in water, unless otherwise noted. Plasma concentration profiles were generated from serial sampling in individual animals up to 24 hours post dose, except for the studies in mice where composite sampling methods were used (i.e. 3 sampling times per mouse; 9 mice per group). […] Exposures increased with increasing dose level across species, in a dose-proportional manner in mouse and dog, and in a greater than dose-proportional manner in rat (80× increase in AUC with a 30× increase in dosage).
# [5] = Single-dose pharmacokinetics, Cynomolgus monkey; assay type: in vivo, male); settings: free base; for AUC(0-t): read-out: AUC0→24
# Experimental: as §3
# [6] = tested on: KYSE-520 xenograft tumors; test: Pharmacodynamics in KYSE-520 xenograft tumors (DUSP6 / MPAS-plus mRNA); assay type: in vivo, NSG mice; settings: for IC50: Mus musculus, KYSE-520, plasma concentration
# Experimental: KYSE-520 (EGFRamp) cells were subcutaneously implanted in NSG mice and allowed to grow to an average tumor volume of 340 mm^3 as monitored by caliper measurements. At this point, animals were randomized and treated with vehicle, Compound (10b) 25 mg/kg or Compound (10b) 100 mg/kg PO. Plasma and tumor samples were harvested 4, 16 and 24 hours after a single dose. Compound (10b) plasma concentration and tumor pERK levels were determined. Data represent mean±SEM. N=4 mice per group.
# In addition to DUSP6 mRNA levels, other MAPK pathway genes were examined through sequencing analysis. The MPAS (MAPK pathway activity score) signature is a signature of 10 genes that reflects MAPK pathway activity. This gene signature has been used in the clinic to evaluate the pharmacodynamic effect of the ERK inhibitor GDC-0994 in tumors. Based on the MPAS signature, a 13-gene signature (“MPAS-plus”) was developed, which includes the 10 MPAS genes and three additional MAPK-targeted genes (ETV1, EGR1 and FOSL1) that are modulated by SHP2 inhibitors across multiple cell line models (data not shown).
# [7] = Single oral dose exposure in NOD/SCID mice; assay type: in vivo; settings: male, mouse; for Kp at 24 h: brain; for AUC(0-inf) / Cmax: plasma
# Experimental: Male NOD/SCID mice (n=3 per group) were administered a single dose of Compound (10b) at 1, 3, 10, 30, and 100 mg/kg by oral gavage. Plasma was collected at 0.25, 1, 2, 4, 8, and 24 hours after each dose, and brains were collected at 24 hours after each dose. Compound (10b) concentrations were determined with LC-MS/MS.
# [8] = Monotherapy studies across panel of CDX models, tolerability; assay type: in vivo, immunocompromised mice; settings: 100 mg/kg daily orally, 21 to 33 days, all CDX models
# Experimental: In vivo efficacy studies were conducted to evaluate the monotherapy anti-tumor activity of Compound (10b) across a panel of cell line-derived xenograft (CDX) models. […] Significant anti-tumor efficacy was also observed in two CDX models with acquired resistance to EGFR inhibitors.
# [9] = male, Beagle, dog, plasma, IV 1 mg/kg
# [10] = male, Beagle, dog, plasma, oral 10 mg/kg
# [11] = male, cynomolgus monkey, plasma, IV 0.3 mg/kg
# [12] = male, cynomolgus monkey, plasma, oral 1 mg/kg
# T1 sequence (O95835 whole entry): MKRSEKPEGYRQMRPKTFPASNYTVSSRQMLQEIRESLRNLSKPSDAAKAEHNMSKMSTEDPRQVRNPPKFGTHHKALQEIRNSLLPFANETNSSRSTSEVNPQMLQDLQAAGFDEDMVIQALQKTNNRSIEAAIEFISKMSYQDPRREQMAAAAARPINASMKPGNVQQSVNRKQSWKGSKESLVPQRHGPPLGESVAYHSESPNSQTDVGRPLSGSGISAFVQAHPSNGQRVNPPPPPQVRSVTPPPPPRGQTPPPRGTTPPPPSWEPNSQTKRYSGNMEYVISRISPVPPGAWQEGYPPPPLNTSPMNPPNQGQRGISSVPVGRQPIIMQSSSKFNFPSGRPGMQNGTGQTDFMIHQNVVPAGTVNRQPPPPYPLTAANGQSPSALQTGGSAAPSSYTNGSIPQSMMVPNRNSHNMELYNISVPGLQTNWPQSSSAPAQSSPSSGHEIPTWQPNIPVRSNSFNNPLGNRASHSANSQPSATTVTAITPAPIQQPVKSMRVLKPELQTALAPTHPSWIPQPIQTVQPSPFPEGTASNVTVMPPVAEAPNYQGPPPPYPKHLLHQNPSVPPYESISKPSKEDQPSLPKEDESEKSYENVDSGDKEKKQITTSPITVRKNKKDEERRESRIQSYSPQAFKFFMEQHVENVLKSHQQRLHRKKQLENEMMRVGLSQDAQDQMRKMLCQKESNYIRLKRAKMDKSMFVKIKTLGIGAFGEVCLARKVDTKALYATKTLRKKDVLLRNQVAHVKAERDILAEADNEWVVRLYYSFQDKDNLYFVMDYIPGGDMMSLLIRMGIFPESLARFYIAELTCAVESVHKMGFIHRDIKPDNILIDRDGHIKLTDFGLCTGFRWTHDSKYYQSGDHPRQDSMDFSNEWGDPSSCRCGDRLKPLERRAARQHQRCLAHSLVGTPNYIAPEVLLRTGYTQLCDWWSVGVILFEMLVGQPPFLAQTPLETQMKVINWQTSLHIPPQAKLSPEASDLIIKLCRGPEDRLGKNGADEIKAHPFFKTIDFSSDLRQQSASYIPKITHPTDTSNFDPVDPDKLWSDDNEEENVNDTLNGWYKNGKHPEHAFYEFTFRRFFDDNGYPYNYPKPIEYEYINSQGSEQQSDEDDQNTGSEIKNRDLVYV
# T3 sequence (P29350 whole entry): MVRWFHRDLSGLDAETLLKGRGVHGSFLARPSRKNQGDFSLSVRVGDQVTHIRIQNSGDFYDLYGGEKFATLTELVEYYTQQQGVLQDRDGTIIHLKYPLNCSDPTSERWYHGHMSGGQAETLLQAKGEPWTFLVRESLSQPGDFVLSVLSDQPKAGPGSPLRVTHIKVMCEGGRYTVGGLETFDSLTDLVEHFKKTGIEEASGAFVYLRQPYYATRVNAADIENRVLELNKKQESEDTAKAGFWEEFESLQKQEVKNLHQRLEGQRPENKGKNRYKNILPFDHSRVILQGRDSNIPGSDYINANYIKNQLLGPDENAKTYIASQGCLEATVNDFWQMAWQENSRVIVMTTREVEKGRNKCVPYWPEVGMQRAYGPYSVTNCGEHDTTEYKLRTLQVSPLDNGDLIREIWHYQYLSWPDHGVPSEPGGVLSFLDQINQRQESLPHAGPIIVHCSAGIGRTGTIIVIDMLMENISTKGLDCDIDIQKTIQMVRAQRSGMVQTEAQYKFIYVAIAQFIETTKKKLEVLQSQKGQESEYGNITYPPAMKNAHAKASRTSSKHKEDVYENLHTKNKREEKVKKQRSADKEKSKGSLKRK
# T2 sequence (P24723 whole entry): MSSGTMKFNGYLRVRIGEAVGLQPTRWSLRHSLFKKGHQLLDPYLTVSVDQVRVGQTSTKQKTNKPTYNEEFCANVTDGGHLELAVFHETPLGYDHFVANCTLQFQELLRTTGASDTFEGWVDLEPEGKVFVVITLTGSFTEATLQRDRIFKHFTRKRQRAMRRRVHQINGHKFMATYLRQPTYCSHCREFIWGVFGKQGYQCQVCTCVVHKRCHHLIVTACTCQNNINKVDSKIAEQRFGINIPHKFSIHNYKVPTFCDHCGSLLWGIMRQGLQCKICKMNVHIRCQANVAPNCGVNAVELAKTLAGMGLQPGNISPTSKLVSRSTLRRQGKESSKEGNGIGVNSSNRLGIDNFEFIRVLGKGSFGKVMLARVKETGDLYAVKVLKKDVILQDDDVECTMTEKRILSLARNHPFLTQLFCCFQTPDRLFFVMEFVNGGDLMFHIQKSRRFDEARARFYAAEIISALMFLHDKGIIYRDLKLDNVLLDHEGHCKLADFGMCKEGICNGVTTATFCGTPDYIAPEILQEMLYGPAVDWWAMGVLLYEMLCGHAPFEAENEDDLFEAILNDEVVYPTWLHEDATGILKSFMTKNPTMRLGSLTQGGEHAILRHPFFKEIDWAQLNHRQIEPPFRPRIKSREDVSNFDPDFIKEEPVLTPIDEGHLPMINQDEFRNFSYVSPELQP
smiles,measurement,setting,value
"Cc1c(N2CCC3(CC2)CO[C@@H](C)[C@H]3N)nc(C)n(-c2cccc(Cl)c2Cl)c1=O (atropisomer, axis not shown; (Ra)) [Compound (10b), 6-((3S,4S)-4-amino-3-methyl-2-oxa-8-azaspiro[4.5]decan-8-yl)-3-(Ra)-(2,3-dichlorophenyl)-2,5-dimethylpyrimidin-4(3H)-one]",remaining binding at 1 µM,[1],32%
same,remaining ligand binding at 1 µM,[2],34%
same,inhibition of phosphatases,[3],No significant inhibition
same,inhibition of human SHP-1,human SHP-1,did not demonstrate any inhibition
same,half-life,[4]; [9],8.23 h
same,AUC(0-t),[4]; [9],3.91 µM·h
same,clearance,"[4]; male, Beagle, dog, plasma, IV 1 mg/kg, read-out: Clp (converted)",8.5 mL/min/kg
same,Vd,"[4]; male, Beagle, dog, plasma, IV 1 mg/kg, read-out: Vdss",5.46 L/kg
same,Cmax,[4]; [10],6.37 µM
same,Tmax,[4]; [10],0.83 h
same,AUC(0-t),[4]; [10],48.2 µM·h
same,F,[4]; oral 10 mg/kg,115%
same,half-life,[5]; [11],6.44 h
same,AUC(0-t),[5]; [11],1.82 µM·h
same,clearance,"[5]; male, cynomolgus monkey, plasma, IV 0.3 mg/kg, read-out: Clp (converted)",6 mL/min/kg
same,Vd,"[5]; male, cynomolgus monkey, plasma, IV 0.3 mg/kg, read-out: Vdss",2.74 L/kg
same,Cmax,[5]; [12],0.43 µM
same,Tmax,[5]; [12],2.67 h
same,AUC(0-t),[5]; [12],4.52 µM·h
same,F,[5]; oral 1 mg/kg,52.3%
same,suppression of DUSP6 mRNA levels in tumors,"[6]; 25 mg/kg PO, 4-hour after a single dose",> 90%
same,suppression of DUSP6 mRNA levels in tumors,"[6]; 25 mg/kg PO, 16-hour after a single dose",< 50%
same,suppression of DUSP6 mRNA levels in tumors,"[6]; 25 mg/kg or 100 mg/kg PO, 24-hour after a single dose",neither treatment significantly suppressed
same,suppression of DUSP6 mRNA levels in tumors,"[6]; 100 mg/kg PO, 4-hour after a single dose",> 90%
same,suppression of DUSP6 mRNA levels in tumors,"[6]; 100 mg/kg PO, 16-hour after a single dose",> 50%
same,IC50,"[6]; PK/PD relationship, read-out: in vivo IC50",1.5 µM
same,IC50,[6]; read-out: KYSE-520 xenograft DUSP6 IC50,0.656 µg/mL
same,Cmax,"[6]; prediction used as reference line for human plasma levels, read-out: predicted efficacious Cmax",5.3 µM
same,suppression of the MPAS-plus signature in the tumor,"[6]; single oral dose or five doses, 25 mg/kg or 100 mg/kg",dose- and time-dependent suppression
same,Kp at 24 h,"[7]; oral, mean over doses 1-100 mg/kg, read-out: mean total brain/plasma level at 24 hours",0.33
same,Kp at 24 h,"[7]; single oral dose 1 mg/kg, read-out: total brain/plasma levels at 24 hours",0.35
same,Kp at 24 h,"[7]; single oral dose 3 mg/kg, read-out: total brain/plasma levels at 24 hours",0.31
same,Kp at 24 h,"[7]; single oral dose 10 mg/kg, read-out: total brain/plasma levels at 24 hours",0.3
same,Kp at 24 h,"[7]; single oral dose 30 mg/kg, read-out: total brain/plasma levels at 24 hours",0.31
same,Kp at 24 h,"[7]; single oral dose 100 mg/kg, read-out: total brain/plasma levels at 24 hours",0.37
same,AUC(0-inf),[7]; single oral dose 1 mg/kg,1030 ng·h/mL
same,Cmax,[7]; single oral dose 1 mg/kg,160 ng/mL
same,AUC(0-inf),[7]; single oral dose 3 mg/kg,3530 ng·h/mL
same,Cmax,[7]; single oral dose 3 mg/kg,507 ng/mL
same,AUC(0-inf),[7]; single oral dose 10 mg/kg,13000 ng·h/mL
same,Cmax,[7]; single oral dose 10 mg/kg,2030 ng/mL
same,AUC(0-inf),[7]; single oral dose 30 mg/kg,30600 ng·h/mL
same,Cmax,[7]; single oral dose 30 mg/kg,4870 ng/mL
same,AUC(0-inf),[7]; single oral dose 100 mg/kg,123000 ng·h/mL
same,Cmax,[7]; single oral dose 100 mg/kg,13900 ng/mL
same,impact of treatment on body weight,[8],no impact
same,tolerability,[8],well tolerated
